According to patent US10376520B2, “Methods for the treatment of cardiovascular disorders” (Galapagos NV, priority 2015, dated 2019):

System: Subjects With Active Crohn's Disease
Assay: LDL determination, Study 5 (Crohn's disease)
Type: in vivo, human
Settings: for [LDL] Median CFB - 10 weeks results: 200 mg q.d. (N = 130)
Excerpt: Double-Blind, Randomized, Placebo-Controlled, Multi-Centre Study to Investigate the Efficacy and Safety of Compound 1 in Subjects With Active Crohn's Disease With Evidence of Mucosal Ulceration.
This is a double-blind, randomized, placebo-controlled, multi-centre Phase 2 study to investigate the efficacy and safety of Compound 1 administered once daily for the treatment of active CD with evidence of mucosal ulceration. The pharmacokinetics (including a PK substudy) and pharmacodynamics of Compound 1 and metabolite in CD will also be characterised.
A total of 180 eligible subjects will be randomized to receive Compound 1 or placebo in addition to their stable background treatment (eg, corticosteroids, aminosalicylates, or CD-related antibiotics). The study will consist of 2 parts, with total treatment duration of 20 weeks. Randomization in Part 1 will be stratified according the subject's previous anti-TNF exposure/response, CRP level at Screening, and oral corticosteroid use at visit Day −1.
After the first 10 weeks of treatment in Part 1, patients will be re-randomized for Part 2 as shown in the diagram below and will be stratified according to the subject's clinical response, previous anti-TNF exposure/response, and oral corticosteroid use at visit Day −1.
The following assays were conducted at Eurofins Global Central Laboratory, Bergschot 71, 4817 PA Breda, The Netherlands, and at Quest Diagnostics, Clinical Trials, Quest House, 125-135 Staines Road, Hounslow, Middlesex, TW3 3JB, United Kingdom. The assays for Study 5 were performed at BARC Europe, 3B, Industrie Park, Zwijnaarde, B-9052 Ghent, Belgium.
The determination of [LDL]-cholesterol is made using an automated method taking advantage of the selective micellary solubilization of [LDL]-cholesterol by a nonionic detergent and the interaction of a sugar compound and lipoproteins (VLDL and chylomicrons).
When a detergent is included in the enzymatic method for cholesterol determination (cholesterol esterase, cholesterol oxidase coupling reaction), the relative reactivities of cholesterol in the lipoprotein fractions increase in this order: [HDL]<chylomicrons <VLDL <[LDL]. In the presence of Mg^2+, a sugar compound markedly reduces the enzymatic reaction of the cholesterol measurement in VLDL and chylomicrons. The combination of a sugar compound with detergent enables the selective determination of [LDL]-cholesterol in serum. (Friedewald et al., 1972; Rifai et al., 1992)
Homogeneous enzymatic colorimetric assay.
In the presence of peroxidase, the hydrogen peroxide generated reacts with 4-aminoantipyrine and Sodium N-(2-hydroxy-3-sulfopropyl)-3,5-dimethoxyaniline (HSDA) to form a purple-blue dye.
The color intensity of this dye is directly proportional to the cholesterol concentration and is measured photometrically.
Human serum and plasma samples [LDL] determination was done on a Roche/Hitachi Cobas c 701/702 system which automatically calculate the analyte concentration of each sample. Samples containing precipitates are centrifuged before performing the assay.

[1] = 200 mg q.d. continued to week 20, week 2
[2] = 200 mg q.d. continued to week 20, week 4
[3] = 200 mg q.d. continued to week 20, week 6
[4] = 200 mg q.d. continued to week 20, week 10
[5] = 200 mg q.d. continued to week 20, week 12
[6] = 200 mg q.d. continued to week 20, week 16
[7] = 200 mg q.d. continued to week 20, week 20
[8] = 200 mg q.d. week 0 to 10, then 100 mg q.d. (N = 30), week 2
[9] = 200 mg q.d. week 0 to 10, then 100 mg q.d. (N = 30), week 4
[10] = 200 mg q.d. week 0 to 10, then 100 mg q.d. (N = 30), week 6
[11] = 200 mg q.d. week 0 to 10, then 100 mg q.d. (N = 30), week 10
[12] = 200 mg q.d. week 0 to 10, then 100 mg q.d. (N = 30), week 12
[13] = 200 mg q.d. week 0 to 10, then 100 mg q.d. (N = 30), week 16
[14] = 200 mg q.d. week 0 to 10, then 100 mg q.d. (N = 30), week 20
[15] = 200 mg q.d. week 0 to 10, then placebo (N = 23), week 2
[16] = 200 mg q.d. week 0 to 10, then placebo (N = 23), week 4
[17] = 200 mg q.d. week 0 to 10, then placebo (N = 23), week 6
[18] = 200 mg q.d. week 0 to 10, then placebo (N = 23), week 10
[19] = 200 mg q.d. week 0 to 10, then placebo (N = 23), week 12
[20] = 200 mg q.d. week 0 to 10, then placebo (N = 23), week 16
[21] = 200 mg q.d. week 0 to 10, then placebo (N = 23), week 20
[22] = 200 mg q.d. week 0 to 10, to 100 mg q.d. week 10 to 20, week 2
[23] = 200 mg q.d. week 0 to 10, to 100 mg q.d. week 10 to 20, week 4
[24] = 200 mg q.d. week 0 to 10, to 100 mg q.d. week 10 to 20, week 6
[25] = 200 mg q.d. week 0 to 10, to 100 mg q.d. week 10 to 20, week 10
[26] = 200 mg q.d. week 0 to 10, to 100 mg q.d. week 10 to 20, week 12

SMILES: O=C(Nc1nc2cccc(-c3ccc(CN4CCS(=O)(=O)CC4)cc3)n2n1)C1CC1 [Compound 1, cyclopropanecarboxylic acid {5-[4-(1,1-dioxo-thiomorpholin-4-ylmethyl)-phenyl]-[1,2,4]triazolo[1,5-a]pyridin-2yl}-amide]
- [LDL] Median CFB - 10 weeks results (week 2): -0.050 mmol/L
- [LDL] Median CFB - 10 weeks results (week 4): -0.050 mmol/L
- [LDL] Median CFB - 10 weeks results (week 6): 0.025 mmol/L
- [LDL] Median CFB - 10 weeks results (week 10): 0.160 mmol/L
- [LDL] Mean CFB - 20 weeks results [1]: 3.14%
- [LDL] Median CFB - 20 weeks results [1]: −2.51%
- [LDL] Mean CFB - 20 weeks results [2]: 1.21%
- [LDL] Median CFB - 20 weeks results [2]: −2.16%
- [LDL] Mean CFB - 20 weeks results [3]: 0.73%
- [LDL] Median CFB - 20 weeks results [3]: −0.61%
- [LDL] Mean CFB - 20 weeks results [4]: 14.77%
- [LDL] Median CFB - 20 weeks results [4]: 8.26%
- [LDL] Mean CFB - 20 weeks results [5]: 9.98%
- [LDL] Median CFB - 20 weeks results [5]: 5.42%
- [LDL] Mean CFB - 20 weeks results [6]: 12.35%
- [LDL] Median CFB - 20 weeks results [6]: 7.42%
- [LDL] Mean CFB - 20 weeks results [7]: 11.56%
- [LDL] Median CFB - 20 weeks results [7]: 6.93%
- [LDL] Mean CFB - 20 weeks results [8]: -0.02 mmol/L
- [LDL] Median CFB - 10 weeks results 20 weeks results [8]: -0.05 mmol/L
- [LDL] Mean CFB - 20 weeks results [9]: 0.00 mmol/L
- [LDL] Median CFB - 10 weeks results 20 weeks results [9]: -0.10 mmol/L
- [LDL] Mean CFB - 20 weeks results [10]: 0.00 mmol/L
- [LDL] Median CFB - 10 weeks results 20 weeks results [10]: 0.04 mmol/L
- [LDL] Mean CFB - 20 weeks results [11]: 0.10 mmol/L
- [LDL] Median CFB - 10 weeks results 20 weeks results [11]: 0.17 mmol/L
- [LDL] Mean CFB - 20 weeks results [12]: 0.10 mmol/L
- [LDL] Median CFB - 10 weeks results 20 weeks results [12]: 0.19 mmol/L
- [LDL] Mean CFB - 20 weeks results [13]: 0.01 mmol/L
- [LDL] Median CFB - 10 weeks results 20 weeks results [13]: -0.05 mmol/L
- [LDL] Mean CFB - 20 weeks results [14]: 0.01 mmol/L
- [LDL] Median CFB - 10 weeks results 20 weeks results [14]: 0.04 mmol/L
- [LDL] Mean CFB - 20 weeks results [15]: 0.037 mmol/L
- [LDL] Median CFB - 10 weeks results 20 weeks results [15]: 0.02 mmol/L
- [LDL] Mean CFB - 20 weeks results [16]: -0.017 mmol/L
- [LDL] Median CFB - 10 weeks results 20 weeks results [16]: 0.05 mmol/L
- [LDL] Mean CFB - 20 weeks results [17]: 0.085 mmol/L
- [LDL] Median CFB - 10 weeks results 20 weeks results [17]: 0.09 mmol/L
- [LDL] Mean CFB - 20 weeks results [18]: 0.077 mmol/L
- [LDL] Median CFB - 10 weeks results 20 weeks results [18]: 0.03 mmol/L
- [LDL] Mean CFB - 20 weeks results [19]: 0.105 mmol/L
- [LDL] Median CFB - 10 weeks results 20 weeks results [19]: 0.12 mmol/L
- [LDL] Mean CFB - 20 weeks results [20]: 0.222 mmol/L
- [LDL] Median CFB - 10 weeks results 20 weeks results [20]: 0.08 mmol/L
- [LDL] Mean CFB - 20 weeks results [21]: 0.205 mmol/L
- [LDL] Median CFB - 10 weeks results 20 weeks results [21]: 0.11 mmol/L
- [LDL] Mean CFB - 20 weeks results [22]: 2.17%
- [LDL] Median CFB - 20 weeks results [22]: −1.37%
- [LDL] Mean CFB - 20 weeks results [23]: 4.07%
- [LDL] Median CFB - 20 weeks results [23]: −1.98%
- [LDL] Mean CFB - 20 weeks results [24]: 2.59%
- [LDL] Median CFB - 20 weeks results [24]: 1.25%
- [LDL] Mean CFB - 20 weeks results [25]: 5.40%
- [LDL] Median CFB - 20 weeks results [25]: 7.46%
- [LDL] Mean CFB - 20 weeks results [26]: 5.91%
- [LDL] Median CFB - 20 weeks results [26]: 6.39%
